14 molecules from US4079130A, “Antidepressant phenylazoimidazoles” (The Dow Chemical Company, priority 1977, dated 1978) can be followed below.

Like-named read-outs stand apart in the source and are kept apart here.

For series [1], the system named is mice. The series is described as follows: Protection from reserpine-induced depression (ptosis) in mice (antidepressant activity). It counts as in vivo. As to conditions: for ED50: Mus musculus; for antidepressant activity (in words): under the conditions of the demonstration. The protocol: Separate groups of mice and the same origin and past history (5 mice per group) were administered 2-((2-fluorophenyl)azo)-1H-imidazole (Example 3) in an aqueous carrier. Different groups were administered the compound by intraperitoneal injection at various dosage rates. Thirty minutes after the administration of the test compound, the mice were administered reserpine at a dosage rate of 2.5 milligrams per kilogram by intraperitoneal injection. Separate groups of similar mice were similarly administered 2.5 milligrams of reserpine per kilogram 30 minutes after administration of various dosages of the known antidepressant. The mice were then observed for 45 minutes for symptoms of reserpine-induced depression.
Protection from reserpine-induced depression is indicated by the absence of the characteristic ptosis.
The results were employed to calculate the dose effective to protect 50 percent of the mice (ED50) by classical, statistical procedures.
The procedure of Example 15 was repeated using oral administration of 2-((2-fluorophenyl)azo)-1H-imidazole (Example 3) instead of intraperitoneal injection.
Using the general procedure outlined above, the ED50 's were calculated for some of the other imidazoles herein disclosed.

Series [2] can be described thus: Acute toxicity, 50 percent lethal dose (LD50). As to conditions: mouse, in vivo.
For series [3], the system named is mice. Put plainly: Blocking of isolation-induced aggression in mice (antianxiety activity). The format is in vivo. As to conditions: for ED50: Mus musculus, ip, intraperitoneal, 30 min before pairing, doses 10.0, 21.5, 46.4 mg/kg. Here is the method: Antianxiety agents tend to block isolation-induced aggression in mice. Aggression was established in untrained mice by isolating them in individual cages for a period of four weeks. At the end of that period, the mice were paired for three minutes on three test days within one week to establish the absence or presence of aggression. During pairing, one mouse was always in the home cage, and the other was the intruder. […] On test days, each dose of test drug was administered by intraperitoneal injection to five pairs of mice; five additional pairs received only the vehicle and served as controls. Each drug was tested at three doses 10.0 mg, 21.5 mg, and 46.4 mg per kilogram of body weight. Thirty minutes after injection, the intruder was placed in the home cage of his opponent, and aggression was recorded as absent or present. When aggression was present, the intruder was removed immediately so that dominance was not established. Using the same procedure as employed in Examples 15 and 16, ED50 's were established for each compound.

The mark [4] stands for this setting: ip, intraperitoneal, 30 min before reserpine 2.5 mg/kg i.p., observed 45 min, read-out: Intraperitoneal ED50 (dose effective to protect 50 percent of the mice).
Setting [5] is: oral, before reserpine 2.5 mg/kg i.p., read-out: Oral ED50.
The mark [6] stands for this setting: acute, Table II, route not given, read-out: Acute Toxicity LD50.

Broadly, the ED50 is the midpoint of the dose-response relation. In general, LD50 refers to the dose expected to kill half of the subjects tested. For `Clc1ccccc1N=Nc1ncc[nH]1` [Example 1, 2-((2-chlorophenyl)azo)-1H-imidazole], the ED50 in the series on mice [1] (setting [4]) came to 20 mg/kg; in the series with mice [1] (setting [5]) it was 23 mg/kg. In addition, the LD50 in series [2] (setting [6]) is over 562 mg/kg.
As for `Cl.Clc1ccccc1N=Nc1ncc[nH]1` [Example 2, 2-((2-chlorophenyl)azo)-1H-imidazole hydrochloride], the values for the ED50 with mice [1] (setting [4]), in the series on mice [1] (setting [5]) and in the series on mice [3] were 17 mg/kg, 32 mg/kg and 13.3 mg/kg, respectively. Also, the LD50 in series [2] (setting [6]) was found to be 316 mg/kg.
For `Fc1ccccc1N=Nc1ncc[nH]1` [Example 3, 2-((2-fluorophenyl)azo)-1H-imidazole], the ED50 with mice [1] (ip, read-out: Intraperitoneal ED50 (dose effective to protect 50 percent of the mice)) was 11 mg/kg; in the series with mice [1] (po, read-out: Oral ED50), 11 mg/kg; with mice [3], 23.7 mg/kg. In addition, in series [2] (ip, intraperitoneal LD50 / intraperitoneal ED50 (reserpine test), read-out: therapeutic index LD50/ED50), the selectivity ratio worked out at 13.4. For the same molecule, the LD50 in series [2] (ip, intraperitoneal, acute, read-out: intraperitoneal acute 50 percent lethal dose (LD50)) came to 147 mg/kg.
In the case of `c1ccc(N=Nc2ncc[nH]2)cc1` [Example 4], the median effective dose (ED50) stood at 20 mg/kg with mice [1] (setting [4]), 24 mg/kg in the series with mice [1] (setting [5]) and 27.1 mg/kg in the series with mice [3]. In series [2] (read-out: Acute Toxicity LD50), the LD50 stood at 316 mg/kg.
Take `Cc1ccccc1N=Nc1ncc[nH]1` [Example 5]: the median effective dose (ED50) in the series on mice [1] (setting [4]) turned out to be 42 mg/kg; in the series on mice [1] (setting [5]), 43 mg/kg. Further, in the series on mice [3] (isolation-induced aggression in mice), the “antianxiety activity (in words)” value is “very weak activity”.
As to `Brc1ccccc1N=Nc1ncc[nH]1` [Example 6], the median effective dose (ED50) was determined as 23 mg/kg in the series with mice [1] (setting [4]), 79 mg/kg in the series on mice [1] (setting [5]) and 28.7 mg/kg in the series on mice [3]. For the same molecule, the LD50 in series [2] (read-out: Acute Toxicity LD50) was over 562 mg/kg.
`Ic1ccccc1N=Nc1ncc[nH]1` [Example 7]: the ED50 with mice [1] (setting [5]) turned out to be 75 mg/kg; in the series with mice [3], 31.6 mg/kg. For the same molecule, the median lethal dose (LD50) in series [2] (read-out: Acute Toxicity LD50) is over 562 mg/kg.
Regarding `O=[N+]([O-])c1ccccc1N=Nc1ncc[nH]1` [Example 8, 2-((2-nitrophenyl)azo)-1H-imidazole], in the series with mice [1], the “antidepressant activity (in words)” value is “active as an antidepressant”. Further, the ED50 with mice [3] is 27.1 mg/kg.
Consider `N#Cc1ccccc1N=Nc1ncc[nH]1` [Example 9], for which the ED50 is 20 mg/kg in the series on mice [1] (setting [4]), 19 mg/kg in the series with mice [1] (setting [5]) and 12.6 mg/kg in the series on mice [3]. Moreover, in series [2] (read-out: Acute Toxicity LD50), the LD50 stood at 147 mg/kg.
Take `Cc1cccc(N=Nc2ncc[nH]2)c1` [Example 10, 2-((3-methylphenyl)azo)-1H-imidazole]: the median effective dose (ED50) in the series with mice [1] (setting [4]) turned out to be 27 mg/kg; in the series on mice [3], 5.84 mg/kg. For the same molecule, the median lethal dose (LD50) in series [2] (setting [6]) turned out to be 316 mg/kg.
With `Clc1cccc(N=Nc2ncc[nH]2)c1` [Example 11], the ED50 was determined as 24 mg/kg in the series with mice [1] (setting [4]), 32 mg/kg in the series on mice [1] (setting [5]) and 24.5 mg/kg in the series with mice [3]. In series [2] (read-out: Acute Toxicity LD50), the LD50 turned out to be 178 mg/kg.
Consider `Cc1ccc(N=Nc2ncc[nH]2)cc1` [Example 12], for which the “antidepressant activity (in words)” value in the series with mice [1] is “essentially inactive as antidepressant agents”. The 50% effective dose (ED50) in the series on mice [3] amounted to 28.7 mg/kg.
The corresponding values for `Cc1ccc(N=Nc2ncc[nH]2)c(Cl)c1` [Example 13] are “essentially inactive as antidepressant agents” and 25.5 mg/kg.
The corresponding values for `Clc1ccc(N=Nc2ncc[nH]2)cc1` [Example 14, 2-((4-chlorophenyl)azo)-1H-imidazole] are “essentially inactive as antidepressant agents” and 4.3 mg/kg.
